Our source for the IC50 values is patent US20250163104A1, “MACROCYCLIC IMMUNOMODULATORS” (priority 2021, published 2025).

Structures are written as SMILES. Where a SMILES comes first, the peptide text is derived from it. Bridges are numbered along the chain shown (N, C = ends). [ ]: non-standard residue; d: D form. The star is where a group is joined. Bip = N[C@@H](Cc1ccc(-c2ccccc2)cc1)C(=O)O; Phe(4-CN) = N#Cc1ccc(C[C@H](N)C(=O)O)cc1; Phe(4-F) = N[C@@H](Cc1ccc(F)cc1)C(=O)O; Gly(cPent) = N[C@H](C(=O)O)C1CCCC1; hPhe = N[C@@H](CCc1ccccc1)C(=O)O; Cha = N[C@@H](CC1CCCCC1)C(=O)O; Cit = NC(=O)NCCC[C@H](N)C(=O)O; Gly(cPr) = N[C@H](C(=O)O)C1CC1; Ahp(2) = CCCCC[C@H](N)C(=O)O; Phg = N[C@H](C(=O)O)c1ccccc1; Tle = CC(C)(C)[C@H](N)C(=O)O; Carboxymethyl = O=C(O)C*; Nle = CCCC[C@H](N)C(=O)O; Orn = NCCC[C@H](N)C(=O)O; Dab = NCC[C@H](N)C(=O)O; Dap = NC[C@H](N)C(=O)O

A word on the IC50: it is the midpoint of a concentration-inhibition curve.

T1 sequence (Q15116 25-288): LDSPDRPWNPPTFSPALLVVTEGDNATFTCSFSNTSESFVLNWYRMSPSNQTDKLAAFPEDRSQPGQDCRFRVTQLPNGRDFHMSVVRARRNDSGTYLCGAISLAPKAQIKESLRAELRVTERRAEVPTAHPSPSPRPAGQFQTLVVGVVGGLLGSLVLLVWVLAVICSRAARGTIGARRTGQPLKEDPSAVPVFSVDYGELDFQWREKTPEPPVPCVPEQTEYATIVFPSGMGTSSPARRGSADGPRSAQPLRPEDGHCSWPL

The first assay concerns the target T1, human PD-1 / PD-L1-Ig binding on Jurkat cell line over-expressing human PD-1 (Jurkat-PD-1) (Homo sapiens, UniProt Q15116).
T1 construct: expressed in transfected cells; host or cells: Jurkat
The assay can be described thus: Jurkat-PD-1 Cell Binding High-Content Screening Assay (CBA). Format: cell-based. The following applies: Jurkat HPD1_PDL1 IC50, Jurkat-PD-1 cells, PE-labeled PD-L1-Ig 20 nM final. Put shortly:
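Binding of fluorescent PD-L1-Ig (phycoerythrin linked via the Ig tag, 20 nM final) to PD-1-overexpressing Jurkat cells was imaged after a 2 h, 37° C compound pretreatment and 1 hour ligand incubation.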
Turning to `CC(C)C[C@H]1NC(=O)[C@H](CCCN)NC(=O)[C@H](CN)NC(=O)[C@H](Cc2ccc(-c3ccccc3)cc2)NC(=O)[C@H](C(C)C)NC(=O)[C@H](Cc2c[nH]c3ccccc23)NC(=O)[C@H](CC(=O)O)NC(=O)[C@H](Cc2ccc(OCC(=O)O)cc2)NC(=O)[C@H](Cc2ccncc2)NC(=O)CSC[C@@H](C(=O)N[C@@H](C)C(N)=O)NC(=O)[C@H]([C@@H](C)O)NC(=O)[C@H](C(C)C)NC(=O)[C@H](CC2CCCCC2)NC(=O)[C@H](CCN)NC1=O` [Compound 1372], the IC50 stood at 12.6 nM.

In the case of `CC(C)C[C@H]1NC(=O)[C@H](CCCN)NC(=O)[C@H](CCCCN)NC(=O)[C@H](Cc2ccc(-c3ccccc3)cc2)NC(=O)[C@H](C(C)C)NC(=O)[C@H](Cc2c[nH]c3ccccc23)NC(=O)[C@H](CC(=O)O)NC(=O)[C@H](Cc2ccc(OCC(=O)O)cc2)NC(=O)[C@H](Cc2ccncc2)NC(=O)CSC[C@@H](C(=O)N[C@@H](C)C(N)=O)NC(=O)[C@H]([C@@H](C)O)NC(=O)[C@H](C(C)C)NC(=O)[C@H](CC2CCCCC2)NC(=O)[C@H](CCN)NC1=O` [Compound 1373], the IC50 worked out at 11.1 nM.

Still in this assay, the particulars now being: Jurkat-PD-1 cells, PE-labeled PD-L1-Ig 20 nM final; read-out: Jurkat HPD1_PDL1 IC50.
As to `CCCC[C@@H]1NC(=O)[C@H](Cc2c[nH]c3ccccc23)NC(=O)[C@H](CC(=O)O)NC(=O)[C@H](Cc2ccc(OCC(=O)O)cc2)NC(=O)[C@H](CN)NC(=O)CSC[C@@H](C(=O)N[C@@H](C)C(N)=O)NC(=O)[C@H]([C@@H](C)O)NC(=O)[C@H](C(C)C)NC(=O)[C@H](CC2CCCCC2)NC(=O)[C@H](CCN)NC(=O)[C@@H](CC(C)C)NC(=O)[C@H](CCCN)NC(=O)[C@H](CCCNC(N)=O)NC(=O)[C@H](Cc2ccc(-c3ccccc3)cc2)NC1=O` [Compound 1358] ({CH2CO}-[Dap]Y(Carboxymethyl)DW[Nle][Bip][Cit][Orn][dL][Dab][Cha]VTCA-NH2; thioether N-14), the IC50 worked out at 7.3 nM.

On to `CC(C)C[C@H]1NC(=O)[C@H](CCCN)NC(=O)[C@H](CCCNC(N)=O)NC(=O)[C@H](Cc2ccc(-c3ccccc3)cc2)NC(=O)[C@H](c2ccccc2)NC(=O)[C@H](Cc2c[nH]c3ccccc23)NC(=O)[C@H](CC(=O)O)NC(=O)[C@H](Cc2ccc(OCC(=O)O)cc2)NC(=O)[C@H](CN)NC(=O)CSC[C@@H](C(=O)N[C@@H](C)C(N)=O)NC(=O)[C@H]([C@@H](C)O)NC(=O)[C@H](C(C)C)NC(=O)[C@H](CC2CCCCC2)NC(=O)[C@H](CCN)NC1=O` [Compound 1359] ({CH2CO}-[Dap]Y(Carboxymethyl)DW[Phg][Bip][Cit][Orn][dL][Dab][Cha]VTCA-NH2; thioether N-14), for which the IC50 was 7.9 nM.

Consider `CCCCC[C@@H]1NC(=O)[C@H](Cc2c[nH]c3ccccc23)NC(=O)[C@H](CC(=O)O)NC(=O)[C@H](Cc2ccc(OCC(=O)O)cc2)NC(=O)[C@H](CN)NC(=O)CSC[C@@H](C(=O)N[C@@H](C)C(N)=O)NC(=O)[C@H]([C@@H](C)O)NC(=O)[C@H](C(C)C)NC(=O)[C@H](CC2CCCCC2)NC(=O)[C@H](CCN)NC(=O)[C@@H](CC(C)C)NC(=O)[C@H](CCCN)NC(=O)[C@H](CCCNC(N)=O)NC(=O)[C@H](Cc2ccc(-c3ccccc3)cc2)NC1=O` [Compound 1360] ({CH2CO}-[Dap]Y(Carboxymethyl)DW[Ahp(2)][Bip][Cit][Orn][dL][Dab][Cha]VTCA-NH2; thioether N-14), for which the IC50 was determined as 10.8 nM.

On to `CC(C)C[C@H]1NC(=O)[C@H](CCCN)NC(=O)[C@H](CCCNC(N)=O)NC(=O)[C@H](Cc2ccc(-c3ccccc3)cc2)NC(=O)[C@H](CC2CCCCC2)NC(=O)[C@H](Cc2c[nH]c3ccccc23)NC(=O)[C@H](CC(=O)O)NC(=O)[C@H](Cc2ccc(OCC(=O)O)cc2)NC(=O)[C@H](CN)NC(=O)CSC[C@@H](C(=O)N[C@@H](C)C(N)=O)NC(=O)[C@H]([C@@H](C)O)NC(=O)[C@H](C(C)C)NC(=O)[C@H](CC2CCCCC2)NC(=O)[C@H](CCN)NC1=O` [Compound 1361] ({CH2CO}-[Dap]Y(Carboxymethyl)DW[Cha][Bip][Cit][Orn][dL][Dab][Cha]VTCA-NH2; thioether N-14), for which the IC50 was found to be 14.9 nM.

Turning to `CC(C)C[C@H]1NC(=O)[C@H](CCCN)NC(=O)[C@H](CCCNC(N)=O)NC(=O)[C@H](Cc2ccc(-c3ccccc3)cc2)NC(=O)[C@H](C(C)(C)C)NC(=O)[C@H](Cc2c[nH]c3ccccc23)NC(=O)[C@H](CC(=O)O)NC(=O)[C@H](Cc2ccc(OCC(=O)O)cc2)NC(=O)[C@H](CN)NC(=O)CSC[C@@H](C(=O)N[C@@H](C)C(N)=O)NC(=O)[C@H]([C@@H](C)O)NC(=O)[C@H](C(C)C)NC(=O)[C@H](CC2CCCCC2)NC(=O)[C@H](CCN)NC1=O` [Compound 1362] ({CH2CO}-[Dap]Y(Carboxymethyl)DW[Tle][Bip][Cit][Orn][dL][Dab][Cha]VTCA-NH2; thioether N-14), the IC50 was 52.9 nM.

`CC(C)C[C@H]1NC(=O)[C@H](CCCN)NC(=O)[C@H](CCCNC(N)=O)NC(=O)[C@H](Cc2ccc(-c3ccccc3)cc2)NC(=O)[C@H](C(C)C)NC(=O)[C@H](Cc2c[nH]c3ccccc23)NC(=O)[C@H](CC(=O)O)NC(=O)[C@H](Cc2ccc(OCC(=O)O)cc2)NC(=O)[C@H](CN)NC(=O)CSC[C@@H](C(=O)N[C@@H](C)C(N)=O)NC(=O)[C@H]([C@@H](C)O)NC(=O)[C@H](C(C)C)NC(=O)[C@H](CC2CC2)NC(=O)[C@H](CCN)NC1=O` [Compound 1363]: the IC50 was determined as 34.5 nM.

Take `CC(C)C[C@H]1NC(=O)[C@H](CCCN)NC(=O)[C@H](CCCNC(N)=O)NC(=O)[C@H](Cc2ccc(-c3ccccc3)cc2)NC(=O)[C@H](C(C)C)NC(=O)[C@H](Cc2c[nH]c3ccccc23)NC(=O)[C@H](CC(=O)O)NC(=O)[C@H](Cc2ccc(OCC(=O)O)cc2)NC(=O)[C@H](CN)NC(=O)CSC[C@@H](C(=O)N[C@@H](C)C(N)=O)NC(=O)[C@H]([C@@H](C)O)NC(=O)[C@H](C(C)C)NC(=O)[C@H](CCc2ccccc2)NC(=O)[C@H](CCN)NC1=O` [Compound 1364] ({CH2CO}-[Dap]Y(Carboxymethyl)DWV[Bip][Cit][Orn][dL][Dab][hPhe]VTCA-NH2; thioether N-14): the IC50 was 57.6 nM.

On to `CC(C)C[C@H]1NC(=O)[C@H](CCCN)NC(=O)[C@H](CCCNC(N)=O)NC(=O)[C@H](Cc2ccc(-c3ccccc3)cc2)NC(=O)[C@H](C(C)C)NC(=O)[C@H](Cc2c[nH]c3ccccc23)NC(=O)[C@H](CC(=O)O)NC(=O)[C@H](Cc2ccc(OCC(=O)O)cc2)NC(=O)[C@H](CN)NC(=O)CSC[C@@H](C(=O)N[C@@H](C)C(N)=O)NC(=O)[C@H]([C@@H](C)O)NC(=O)[C@H](C(C)C)NC(=O)[C@H](Cc2ccc(C#N)cc2)NC(=O)[C@H](CCN)NC1=O` [Compound 1366] ({CH2CO}-[Dap]Y(Carboxymethyl)DWV[Bip][Cit][Orn][dL][Dab][Phe(4-CN)]VTCA-NH2; thioether N-14), for which the IC50 is 858 nM.

Regarding `CC(C)C[C@H]1NC(=O)[C@H](CCCN)NC(=O)[C@H](CCCNC(N)=O)NC(=O)[C@H](Cc2ccc(-c3ccccc3)cc2)NC(=O)[C@H](C(C)C)NC(=O)[C@H](Cc2c[nH]c3ccccc23)NC(=O)[C@H](CC(=O)O)NC(=O)[C@H](Cc2ccc(OCC(=O)O)cc2)NC(=O)[C@H](CN)NC(=O)CSC[C@@H](C(=O)N[C@@H](C)C(N)=O)NC(=O)[C@H]([C@@H](C)O)NC(=O)[C@H](C(C)C)NC(=O)[C@H](Cc2ccc(F)cc2)NC(=O)[C@H](CCN)NC1=O` [Compound 1367] ({CH2CO}-[Dap]Y(Carboxymethyl)DWV[Bip][Cit][Orn][dL][Dab][Phe(4-F)]VTCA-NH2; thioether N-14), the IC50 was determined as 21.7 nM.

With `CC(C)C[C@H]1NC(=O)[C@H](CCCN)NC(=O)[C@H](CCCNC(N)=O)NC(=O)[C@H](Cc2ccc(-c3ccccc3)cc2)NC(=O)[C@H](C2CCCC2)NC(=O)[C@H](Cc2c[nH]c3ccccc23)NC(=O)[C@H](CC(=O)O)NC(=O)[C@H](Cc2ccc(OCC(=O)O)cc2)NC(=O)[C@H](CN)NC(=O)CSC[C@@H](C(=O)N[C@@H](C)C(N)=O)NC(=O)[C@H]([C@@H](C)O)NC(=O)[C@H](C(C)C)NC(=O)[C@H](CC2CCCCC2)NC(=O)[C@H](CCN)NC1=O` [Compound 1368] ({CH2CO}-[Dap]Y(Carboxymethyl)DW[Gly(cPent)][Bip][Cit][Orn][dL][Dab][Cha]VTCA-NH2; thioether N-14), the IC50 came out at 7.1 nM.

For `CC(C)C[C@H]1NC(=O)[C@H](CCCN)NC(=O)[C@H](CCCNC(N)=O)NC(=O)[C@H](Cc2ccc(-c3ccccc3)cc2)NC(=O)[C@H](C2CC2)NC(=O)[C@H](Cc2c[nH]c3ccccc23)NC(=O)[C@H](CC(=O)O)NC(=O)[C@H](Cc2ccc(OCC(=O)O)cc2)NC(=O)[C@H](CN)NC(=O)CSC[C@@H](C(=O)N[C@@H](C)C(N)=O)NC(=O)[C@H]([C@@H](C)O)NC(=O)[C@H](C(C)C)NC(=O)[C@H](CC2CCCCC2)NC(=O)[C@H](CCN)NC1=O` [Compound 1369] ({CH2CO}-[Dap]Y(Carboxymethyl)DW[Gly(cPr)][Bip][Cit][Orn][dL][Dab][Cha]VTCA-NH2; thioether N-14), the IC50 came to 19.9 nM.

`CC[C@H](C)[C@@H]1NC(=O)[C@H](Cc2ccc(-c3ccccc3)cc2)NC(=O)[C@H](CC(C)C)NC(=O)[C@H](Cc2c[nH]c3ccccc23)NC(=O)[C@H](CC(=O)O)NC(=O)[C@H](Cc2ccc(OCC(=O)O)cc2)NC(=O)[C@H](CN)NC(=O)CSC[C@@H](C(=O)N[C@@H](C)C(N)=O)NC(=O)[C@H]([C@@H](C)O)NC(=O)[C@H](C(C)C)NC(=O)[C@H](CC(C)C)NC(=O)[C@H](CCN)NC(=O)[C@@H](CC(C)C)NC(=O)[C@H](CCCN)NC1=O` [Compound 1370] ({CH2CO}-[Dap]Y(Carboxymethyl)DWL[Bip]I[Orn][dL][Dab]LVTCA-NH2; thioether N-14): the IC50 amounted to 6.4 nM.

As to `CC(C)C[C@H]1NC(=O)[C@H](CCCN)NC(=O)[C@H](CCCN)NC(=O)[C@H](Cc2ccc(-c3ccccc3)cc2)NC(=O)[C@H](C(C)C)NC(=O)[C@H](Cc2c[nH]c3ccccc23)NC(=O)[C@H](CC(=O)O)NC(=O)[C@H](Cc2ccc(OCC(=O)O)cc2)NC(=O)[C@H](CN)NC(=O)CSC[C@@H](C(=O)N[C@@H](C)C(N)=O)NC(=O)[C@H]([C@@H](C)O)NC(=O)[C@H](C(C)C)NC(=O)[C@H](CC2CCCCC2)NC(=O)[C@H](CCN)NC1=O` [Compound 1374], the IC50 came out at 9.8 nM.
